Three compounds from patent publication US20220348590A1, “CYCLOOXYGENASE-2 INHIBITORS AND USES THEREOF” (The Board Institute, Inc., priority 2019, published 2022) can be followed below.

pIC50: −log10 of the molar value. Where two headings read alike, the source gives them in different places.

Data set [1] is described as follows: mouse brain protein binding (BPB) assay. In kind it is in vitro ADME. How it is done: (§1) We have adapted a previously reported cyclooxygenase enzymatic assay utilizing LCMS quantification of PGE2 as the product of COX-1 and COX2 catalyzed conversion of arachidonic acid to evaluate the binding properties of newly synthesized ligands [Cao, 2011]. These optimized and miniaturized (384-well plates) LCMS-based COX-1 and COX2 enzymatic assays enabled us to quickly evaluate newly synthesized ligands for COX2 binding affinity and selectivity vs COX-1. Using a shorter ligand-enzyme incubation time in the LCMS assay (2 minutes vs 10 minutes) also permitted us to prioritize ligands with faster binding kinetics. Considering the relatively slow on-rate kinetics of known coxibs, due to their 3-step binding mechanism [Marnett, 2009], we believe that optimizing this critical parameter will be key to the successful development of a COX2 PET tracer. Using these enzymatic assays, we have evaluated>200 newly synthesized ligands against COX2 and >20 ligands against COX-1. Another critical property necessary for a good PET radiotracer is to have low non-specific binding (NSB) to increase the free fraction and maximize the signal to noise ratio. This property can be evaluated using in-vitro protein binding assays, and we have now evaluated>50 newly synthesized ligands in mouse, rat and human plasma protein binding (PPB) assays as well as >15 ligands in a mouse brain protein binding (BPB) assay.

The nature of a further data set: Rat Microsome Stability. The data set is classed as in vitro ADME. The following applies: rat microsomes.
Another data set deals with MDR1. The data set is described as follows: MDR1-MDCKII permeability and efflux. In kind it is in vitro ADME. The following applies: dog, MDCK-MDR1; for Papp A→B: read-out: MDR1-MCKII Papp A-B; for Papp B→A: read-out: MDR1-MCKII Papp B-A.
The nature of data set [2]: in-vitro protein binding: free fraction / fraction unbound, matrix and species not given. In kind it is in vitro ADME. The following applies: compared to MC1; comparator not always stated. Here is the method: as §1
The nature of data set [3]: Human Plasma Protein Stability (% Remaining). The data set is classed as in vitro ADME. The following applies: average.
Data set [4] addresses T1, human recombinant COX2 (hCOX2) (UniProt P35354).
T1 sequence (P35354 1-604): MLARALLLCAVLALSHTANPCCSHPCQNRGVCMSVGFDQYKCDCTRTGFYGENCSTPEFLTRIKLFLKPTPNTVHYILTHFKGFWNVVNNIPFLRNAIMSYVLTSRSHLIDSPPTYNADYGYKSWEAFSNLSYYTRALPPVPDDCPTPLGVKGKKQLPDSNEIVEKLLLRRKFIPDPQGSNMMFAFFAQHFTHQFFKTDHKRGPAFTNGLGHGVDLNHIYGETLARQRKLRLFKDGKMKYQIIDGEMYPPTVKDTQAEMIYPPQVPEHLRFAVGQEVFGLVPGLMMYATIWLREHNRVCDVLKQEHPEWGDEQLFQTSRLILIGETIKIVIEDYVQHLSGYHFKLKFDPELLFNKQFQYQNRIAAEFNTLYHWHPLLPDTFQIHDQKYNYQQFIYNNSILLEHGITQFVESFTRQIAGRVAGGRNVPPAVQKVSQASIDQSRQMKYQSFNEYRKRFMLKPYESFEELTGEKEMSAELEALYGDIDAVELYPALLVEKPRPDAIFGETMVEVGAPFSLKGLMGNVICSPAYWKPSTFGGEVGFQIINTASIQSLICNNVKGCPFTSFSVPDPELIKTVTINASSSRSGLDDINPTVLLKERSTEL
In words: LCMS-based COX2 enzymatic inhibition assay (PGE2 quantification). The data set is classed as biochemical. Also noted: COX2 2 minutes pge2/pge2d4 area ratio Avg; other: 2 minutes; readout pge2/pge2d4 area ratio; average; COX2 2 minutes pge2/pge2d4 area ratio Avg; LLE; average LLE; COX2 2 minutes pge2 area (counts) Avg; readout pge2 area (counts); other: 2 min; "ovine COX2 (oCOX2), human recombinant COX2 (hCOX2)". The following applies: for pIC50: average. A digest of the protocol: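 PGE2 formed from arachidonic acid (final 5 μM, 2 min) was measured by LC-MS-MS against DMSO controls. Enzyme (oCOX-1 0.1 μg or hCOX2 0.2 μg) with hematin/epinephrine cofactors at pH 8.0 was given 10 min at 37 °C with compound first. Twelve-point curves run three times gave IC50.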

Setting [5] is: 2 minutes, readout pge2/pge2d4 area ratio, read-out: COX2 2 minutes pge2/pge2d4 area ratio Avg. IC50.
Setting [6] is: 2 minutes, readout pge2 area (counts), read-out: COX2 2 minutes pge2 area (counts) Avg. IC50.
Setting [7] is: 2 minutes, readout pge2/pge2d4 area ratio, average LLE.
Where [8] appears, read: 2 minutes, readout pge2 area (counts), average LLE.

Usually fraction unbound stands for the share of the substance not bound to proteins or other matrix. As usually defined, the efflux ratio is a quotient of directional permeabilities that is used to spot active efflux. Usually Papp A→B stands for the apparent permeability from the apical to the basolateral side of a cell layer. Usually Papp B→A stands for how fast a substance crosses the layer from the basolateral side. With `CS(=O)(=O)c1ccc(-c2cccc(NCc3ccco3)n2)cc1` [Compound 36], the fraction unbound in data set [1] is 0.019. Besides, the “Rat Microsome Stability % Remaining Avg” value in the data set “Rat Microsome Stability” was determined as 11.6%. In the data set with MDR1, the efflux ratio amounted to 1, the Papp A→B is 685 nm/s and the apparent permeability from basolateral to apical (Papp B→A) was 679 nm/s. The “improvement in free fraction (fraction unbound)” value in data set [2] is approximately 4 fold. Also, in data set [3], the “Human Plasma Protein Stability % Remaining Avg” value amounted to 100%. Further, in data set [4] (setting [5]), the pIC50 was 7.76. In addition, the pIC50 in data set [4] (setting [6]) is 7.74.

Take `CS(=O)(=O)c1ccc(-c2cccc(NCc3ccoc3)n2)cc1` [Compound 47, N-(furan-3-ylmethyl)-6-(4-(methylsulfonyl)phenyl)pyridin-2-amine]: in data set [1], the fraction unbound is 0.022. Besides, in the data set “Rat Microsome Stability”, the “Rat Microsome Stability % Remaining Avg” value was 8.2%. Further, in the data set with MDR1, the efflux ratio is 0.9, the Papp A→B came to 508 nm/s and the Papp B→A came to 472 nm/s. Also, in data set [2], the “improvement in free fraction (fraction unbound)” value is approximately 4 fold. Also, the “Human Plasma Protein Stability % Remaining Avg” value in data set [3] is recorded as 102.5%. In addition, in data set [4] (setting [7]), the “COX2 2 minutes pge2/pge2d4 area ratio Avg. LLE” value amounted to 4.86. The pIC50 in data set [4] (setting [5]) is 7.67. In data set [4] (setting [8]), the “COX2 2 minutes pge2 area (counts) Avg. LLE” value is recorded as 4.974. Further, in data set [4] (setting [6]), the pIC50 was 7.81.

As for `CS(=O)(=O)c1ccc(-c2cncc(NCc3cccs3)n2)cc1` [Compound 98], the fraction unbound in data set [1] was 0.02. For the same compound, the “Rat Microsome Stability % Remaining Avg” value in the data set “Rat Microsome Stability” was 20.3%. Further, the efflux ratio in the data set on MDR1 was 1.7. In addition, the Papp A→B with MDR1 came out at 497 nm/s. In the data set with MDR1, the basolateral-to-apical permeability (Papp B→A) is 838 nm/s. Besides, the “improvement in free fraction (fraction unbound)” value in data set [2] is given as 3 fold. Besides, the “COX2 2 minutes pge2/pge2d4 area ratio Avg. LLE” value in data set [4] (setting [7]) was 5.067. The pIC50 in data set [4] (setting [5]) was 7.12; in data set [4] (setting [6]), 7.21; in data set [4] (10 minutes, readout pge2 area (counts), read-out: COX2 10 minutes pge2 area (counts) Avg. IC50) it was 8.25; in data set [4] (30 minutes, readout pge2 area (counts), read-out: COX2 30 minutes pge2 area (counts) Avg. IC50), 8.56. Moreover, the “COX2 2 minutes pge2 area (counts) Avg. LLE” value in data set [4] (setting [8]) was 5.168. Also, in data set [4] (10 minutes, readout pge2 area (counts), average LLE), the “COX2 10 minutes pge2 area (counts) Avg. LLE” value came out at 6.195. Besides, the “COX2 30 minutes pge2 area (counts) Avg. LLE” value in data set [4] (30 minutes, readout pge2 area (counts), average LLE) stood at 6.4321.
